Experimental data reported in PubChem BioAssay (NCI).
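Assay format: 96-well plates, 48-hour exposure. TGI marks complete inhibition of growth.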

Experiments:
Assay in all cases: DTP human tumour cell line panel, 48 h
NCI-H23 lung = test system: NCI-H23 lung
SF-539 CNS = test system: SF-539 CNS
RXF 393 renal = test system: RXF 393 renal
PC-3 prostate = test system: PC-3 prostate
RPMI-8226 leukemia = test system: RPMI-8226 leukemia
NCI-H226 lung = test system: NCI-H226 lung
KM12 colon = test system: KM12 colon
NCI-H522 lung = test system: NCI-H522 lung
786-0 renal = test system: 786-0 renal
SK-OV-3 ovarian = test system: SK-OV-3 ovarian
IGROV1 ovarian = test system: IGROV1 ovarian
HCT-15 colon = test system: HCT-15 colon
HOP-62 NSCLC = test system: HOP-62 NSCLC
U251 CNS = test system: U251 CNS
MDA-MB-435 = test system: MDA-MB-435
LOX IMVI melanoma = test system: LOX IMVI melanoma
M14 melanoma = test system: M14 melanoma
NCI-H460 lung = test system: NCI-H460 lung
HL-60(TB) leukemia = test system: HL-60(TB) leukemia
OVCAR-5 ovarian = test system: OVCAR-5 ovarian
SK-MEL-28 melanoma = test system: SK-MEL-28 melanoma
EKVX NSCLC = test system: EKVX NSCLC
TK-10 renal = test system: TK-10 renal
HS 578T breast = test system: HS 578T breast
COLO 205 colon = test system: COLO 205 colon
SNB-75 CNS = test system: SNB-75 CNS
HT29 colon = test system: HT29 colon
MDA-N = test system: MDA-N
UO-31 renal = test system: UO-31 renal
MOLT-4 leukemia = test system: MOLT-4 leukemia
SNB-19 CNS = test system: SNB-19 CNS
BT-549 breast = test system: BT-549 breast
CAKI-1 renal = test system: CAKI-1 renal
A549 NSCLC = test system: A549 NSCLC
SK-MEL-5 melanoma = test system: SK-MEL-5 melanoma
MALME-3M melanoma = test system: MALME-3M melanoma
DU-145 prostate = test system: DU-145 prostate
SK-MEL-2 melanoma = test system: SK-MEL-2 melanoma
HOP-92 NSCLC = test system: HOP-92 NSCLC
OVCAR-8 ovarian = test system: OVCAR-8 ovarian
HCT-116 colon = test system: HCT-116 colon
MDA-MB-231 breast = test system: MDA-MB-231 breast
NCI/ADR-RES ovarian = test system: NCI/ADR-RES ovarian
UACC-257 melanoma = test system: UACC-257 melanoma
ACHN renal = test system: ACHN renal
UACC-62 melanoma = test system: UACC-62 melanoma
MCF7 breast = test system: MCF7 breast
SW-620 colon = test system: SW-620 colon
SF-268 CNS = test system: SF-268 CNS
OVCAR-4 ovarian = test system: OVCAR-4 ovarian
SN12C renal = test system: SN12C renal
CCRF-CEM leukemia = test system: CCRF-CEM leukemia
K-562 leukemia = test system: K-562 leukemia
HCC-2998 colon = test system: HCC-2998 colon
A498 renal = test system: A498 renal
OVCAR-3 ovarian = test system: OVCAR-3 ovarian
SF-295 CNS = test system: SF-295 CNS
SR leukemia = test system: SR leukemia

Structure (SMILES): C(=Nc1ccccc1C1SCCCS1)c1ccccc1
- TGI (NCI-H23 lung): > 100 µM
- TGI (SF-539 CNS): > 100 µM
- TGI (RXF 393 renal): > 100 µM
- TGI (PC-3 prostate): > 100 µM
- TGI (RPMI-8226 leukemia): > 100 µM
- TGI (NCI-H226 lung): > 100 µM
- TGI (KM12 colon): > 100 µM
- TGI (NCI-H522 lung): > 100 µM
- TGI (786-0 renal): > 100 µM
- TGI (SK-OV-3 ovarian): > 100 µM
- TGI (IGROV1 ovarian): > 100 µM
- TGI (HCT-15 colon): > 100 µM
- TGI (HOP-62 NSCLC): > 100 µM
- TGI (U251 CNS): > 100 µM
- TGI (MDA-MB-435): > 100 µM
- TGI (LOX IMVI melanoma): > 100 µM
- TGI (M14 melanoma): > 100 µM
- TGI (NCI-H460 lung): > 100 µM
- TGI (HL-60(TB) leukemia): > 100 µM
- TGI (OVCAR-5 ovarian): > 100 µM
- TGI (SK-MEL-28 melanoma): > 100 µM
- TGI (EKVX NSCLC): > 100 µM
- TGI (TK-10 renal): > 100 µM
- TGI (HS 578T breast): > 100 µM
- TGI (COLO 205 colon): > 100 µM
- TGI (SNB-75 CNS): > 100 µM
- TGI (HT29 colon): > 100 µM
- TGI (MDA-N): > 100 µM
- TGI (UO-31 renal): > 100 µM
- TGI (MOLT-4 leukemia): > 100 µM
- TGI (SNB-19 CNS): > 100 µM
- TGI (BT-549 breast): > 100 µM
- TGI (CAKI-1 renal): > 100 µM
- TGI (A549 NSCLC): > 100 µM
- TGI (SK-MEL-5 melanoma): > 100 µM
- TGI (MALME-3M melanoma): > 100 µM
- TGI (DU-145 prostate): > 100 µM
- TGI (SK-MEL-2 melanoma): > 100 µM
- TGI (HOP-92 NSCLC): > 100 µM
- TGI (OVCAR-8 ovarian): > 100 µM
- TGI (HCT-116 colon): > 100 µM
- TGI (MDA-MB-231 breast): > 100 µM
- TGI (NCI/ADR-RES ovarian): > 100 µM
- TGI (UACC-257 melanoma): > 100 µM
- TGI (ACHN renal): > 100 µM
- TGI (UACC-62 melanoma): > 100 µM
- TGI (MCF7 breast): > 100 µM
- TGI (SW-620 colon): > 100 µM
- TGI (SF-268 CNS): > 100 µM
- TGI (OVCAR-4 ovarian): > 100 µM
- TGI (SN12C renal): > 100 µM
- TGI (CCRF-CEM leukemia): > 100 µM
- TGI (K-562 leukemia): > 100 µM
- TGI (HCC-2998 colon): > 100 µM
- TGI (A498 renal): > 100 µM
- TGI (OVCAR-3 ovarian): > 100 µM
- TGI (SF-295 CNS): > 100 µM

Structure (SMILES): O=c1cnnc2sc(=S)[nH]n12
- TGI (SF-539 CNS): > 100 µM
- TGI (PC-3 prostate): > 100 µM
- TGI (RPMI-8226 leukemia): 29.1 µM
- TGI (KM12 colon): > 100 µM
- TGI (NCI-H522 lung): 27 µM
- TGI (SR leukemia): 62.3 µM
- TGI (786-0 renal): 49.8 µM
- TGI (IGROV1 ovarian): 74 µM
- TGI (HCT-15 colon): 57.3 µM
- TGI (HOP-62 NSCLC): 9.18 µM
- TGI (U251 CNS): 75.3 µM
- TGI (MDA-MB-435): > 100 µM
- TGI (LOX IMVI melanoma): 13.9 µM
- TGI (M14 melanoma): > 100 µM
- TGI (NCI-H460 lung): > 100 µM
- TGI (HL-60(TB) leukemia): 79.9 µM
- TGI (OVCAR-5 ovarian): > 100 µM
- TGI (SK-MEL-28 melanoma): > 100 µM
- TGI (EKVX NSCLC): > 100 µM
- TGI (HS 578T breast): > 100 µM
- TGI (COLO 205 colon): > 100 µM
- TGI (HT29 colon): > 100 µM
- TGI (MDA-N): > 100 µM
- TGI (UO-31 renal): 52.1 µM
- TGI (MOLT-4 leukemia): 42.2 µM
- TGI (SNB-19 CNS): > 100 µM
- TGI (BT-549 breast): 64.4 µM
- TGI (CAKI-1 renal): 68.2 µM
- TGI (A549 NSCLC): > 100 µM
- TGI (SK-MEL-5 melanoma): 57.9 µM
- TGI (MALME-3M melanoma): > 100 µM
- TGI (DU-145 prostate): > 100 µM
- TGI (SK-MEL-2 melanoma): > 100 µM
- TGI (OVCAR-8 ovarian): 34.3 µM
- TGI (HCT-116 colon): > 100 µM
- TGI (NCI/ADR-RES ovarian): > 100 µM
- TGI (UACC-257 melanoma): 78.4 µM
- TGI (ACHN renal): > 100 µM
- TGI (UACC-62 melanoma): > 100 µM
- TGI (MCF7 breast): 39.8 µM
- TGI (SW-620 colon): 24.9 µM
- TGI (SF-268 CNS): > 100 µM
- TGI (OVCAR-4 ovarian): 53.4 µM
- TGI (CCRF-CEM leukemia): 12.1 µM
- TGI (K-562 leukemia): 36.8 µM
- TGI (HCC-2998 colon): > 100 µM
- TGI (A498 renal): > 100 µM
- TGI (OVCAR-3 ovarian): > 100 µM
- TGI (SF-295 CNS): > 100 µM

Structure (SMILES): Cc1cc(-c2ccc[nH]2)on1
- TGI (NCI-H23 lung): > 100 µM
- TGI (RXF 393 renal): > 100 µM
- TGI (PC-3 prostate): > 100 µM
- TGI (RPMI-8226 leukemia): > 100 µM
- TGI (KM12 colon): > 100 µM
- TGI (NCI-H522 lung): > 100 µM
- TGI (786-0 renal): > 100 µM
- TGI (SK-OV-3 ovarian): > 100 µM
- TGI (IGROV1 ovarian): > 100 µM
- TGI (HCT-15 colon): > 100 µM
- TGI (HOP-62 NSCLC): > 100 µM
- TGI (U251 CNS): > 100 µM
- TGI (MDA-MB-435): > 100 µM
- TGI (M14 melanoma): > 100 µM
- TGI (NCI-H460 lung): > 100 µM
- TGI (OVCAR-5 ovarian): > 100 µM
- TGI (SK-MEL-28 melanoma): > 100 µM
- TGI (EKVX NSCLC): > 100 µM
- TGI (TK-10 renal): > 100 µM
- TGI (HS 578T breast): > 100 µM
- TGI (COLO 205 colon): > 100 µM
- TGI (SNB-75 CNS): > 100 µM
- TGI (HT29 colon): > 100 µM
- TGI (MDA-N): > 100 µM
- TGI (UO-31 renal): > 100 µM
- TGI (MOLT-4 leukemia): > 100 µM
- TGI (SNB-19 CNS): > 100 µM
- TGI (BT-549 breast): > 100 µM
- TGI (CAKI-1 renal): > 100 µM
- TGI (A549 NSCLC): > 100 µM
- TGI (SK-MEL-5 melanoma): > 100 µM
- TGI (MALME-3M melanoma): > 100 µM
- TGI (DU-145 prostate): > 100 µM
- TGI (SK-MEL-2 melanoma): > 100 µM
- TGI (HOP-92 NSCLC): > 100 µM
- TGI (OVCAR-8 ovarian): > 100 µM
- TGI (HCT-116 colon): > 100 µM
- TGI (MDA-MB-231 breast): > 100 µM
- TGI (NCI/ADR-RES ovarian): > 100 µM
- TGI (UACC-257 melanoma): > 100 µM
- TGI (ACHN renal): > 100 µM
- TGI (UACC-62 melanoma): > 100 µM
- TGI (MCF7 breast): > 100 µM
- TGI (SW-620 colon): > 100 µM
- TGI (SF-268 CNS): > 100 µM
- TGI (OVCAR-4 ovarian): > 100 µM
- TGI (CCRF-CEM leukemia): > 100 µM
- TGI (K-562 leukemia): > 100 µM
- TGI (HCC-2998 colon): > 100 µM
- TGI (A498 renal): > 100 µM
- TGI (OVCAR-3 ovarian): > 100 µM
- TGI (SF-295 CNS): > 100 µM
